Test systems include 786-0 renal; HCT-116 colon; HOP-92 NSCLC; NCI-H460 lung; OVCAR-3 ovarian; SK-OV-3 ovarian; SR leukemia; T-47D breast; TK-10 renal; U251 CNS.
Assay in all cases: NCI anticancer screen, dose series, 48 h

Each structure is given as a SMILES string. “And” between values parts separate entries of the source, which are not always exact repeats. Equal values may be shown once.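 Protocol summary: plate cells (96-well), add compound at 5 concentrations, incubate 48 h, interpolate endpoints linearly. GI50 marks 50% less growth. The concentration for full growth arrest is given as TGI.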

Consider `Cc1ccc(OC(=O)N2C/C(=C\c3ccccc3)C(=O)/C(=C/c3ccccc3)C2)cc1`, for which the TGI in the test with 786-0 renal was 35.9 µM; with HCT-116 colon, 5.28 µM; in the test on HOP-92 NSCLC it was greater than 100 µM; with NCI-H460 lung, greater than 100 µM; in the test on OVCAR-3 ovarian, 37.4 µM; in the test on SK-OV-3 ovarian, 86.2 µM. The TGI in the test with SR leukemia was 13.2 µM; in the test with T-47D breast, greater than 100 µM; with TK-10 renal, greater than 87.9 µM; in the test with U251 CNS, 38.6 µM.

With `Cc1nc2ccccc2c(=O)n1/N=C(\N=Nc1cc(Cl)ccc1Cl)c1ccccc1`, the TGI in the test with 786-0 renal is greater than 100 µM; in the test on HCT-116 colon it was greater than 31.6 µM; in the test with HOP-92 NSCLC it was greater than 100 µM; in the test on NCI-H460 lung, greater than 100 µM; in the test with OVCAR-3 ovarian it was greater than 100 µM; in the test on SK-OV-3 ovarian, greater than 100 µM. The TGI with SR leukemia is greater than 100 µM; with T-47D breast, greater than 100 µM; in the test with TK-10 renal, greater than 100 µM; with U251 CNS, greater than 75.2 µM.

Regarding `C#C[C@]1(O)CC[C@H]2[C@@H]3CC=C4c5nc(N)sc5CC[C@]4(C)[C@H]3CC[C@@]21C`, the GI50 is 2.06 µM in the test on 786-0 renal; 3.91 µM in the test with HCT-116 colon; 3.7 µM with HOP-92 NSCLC; 3.78 µM in the test with NCI-H460 lung; 3.1 µM with OVCAR-3 ovarian; 3.5 µM in the test on SK-OV-3 ovarian. The GI50 is 2.31 µM in the test with SR leukemia, 3.98 µM in the test with T-47D breast, 11.3 µM in the test with TK-10 renal and 2.47 µM in the test with U251 CNS. In addition, the TGI came to 4.41 µM in the test on 786-0 renal; 19.6 µM in the test on HCT-116 colon; 19.5 µM in the test on HOP-92 NSCLC; 16.4 µM with NCI-H460 lung; 9.84 µM in the test with OVCAR-3 ovarian; 10.5 µM in the test on SK-OV-3 ovarian. The TGI with SR leukemia stood at 9.18 µM; in the test with T-47D breast, 29.7 µM; in the test with TK-10 renal, 39.4 µM; with U251 CNS, 16.4 µM.

Take `C=C1C[C@@H]2O[C@H]3[C@H]4[C@@H](CC[C@@](C)(OC(=O)CCC)[C@H]42)[C@@H](C)C(=O)O[C@@]3(C)CC[C@H]1OO`: the GI50 in the test with 786-0 renal was greater than 100 µM; in the test on HCT-116 colon, 24.3 µM; with HOP-92 NSCLC, 13.3 µM; in the test with NCI-H460 lung, 19.3 µM; in the test with OVCAR-3 ovarian it was 13.9 µM; in the test on SK-OV-3 ovarian, greater than 100 µM. Moreover, the GI50 in the test with SR leukemia was 5.48 µM; in the test with T-47D breast it was 21.4 µM; in the test with TK-10 renal, 26.1 µM; with U251 CNS it was 16.5 µM. The TGI in the test on 786-0 renal is greater than 100 µM; in the test with HCT-116 colon it was 54.6 µM; in the test with HOP-92 NSCLC, 26 µM; with NCI-H460 lung it was 35.8 µM; in the test on OVCAR-3 ovarian, 29.2 µM; in the test on SK-OV-3 ovarian, greater than 100 µM. In addition, the TGI in the test on SR leukemia was 18.4 µM; with T-47D breast, 40 µM; in the test on TK-10 renal it was 49.4 µM; with U251 CNS it was 30.1 µM.

As for `CCOc1ccc2cc(-c3nn(CC4CCNCC4)c4ncnc(N)c34)ccc2c1`, the GI50 in the test on 786-0 renal is 14.6 µM; in the test on HCT-116 colon, 13.4 µM; with HOP-92 NSCLC it was 4.96 µM; in the test on NCI-H460 lung, 16.8 µM; in the test with OVCAR-3 ovarian it was 18.1 µM; in the test with SK-OV-3 ovarian, 17.3 µM. Further, the GI50 is 4.23 µM in the test on SR leukemia, 18.2 µM in the test with T-47D breast, 16.8 µM with TK-10 renal and 13.7 µM with U251 CNS. The TGI came to 28.4 µM in the test with 786-0 renal; 29.3 µM in the test on HCT-116 colon; 24.9 µM in the test with HOP-92 NSCLC; 32.8 µM with NCI-H460 lung; 43.8 µM in the test with OVCAR-3 ovarian; 39.3 µM in the test with SK-OV-3 ovarian. For the same molecule, the TGI came to 19.6 µM with SR leukemia, 50.5 µM in the test with T-47D breast, 38.8 µM in the test on TK-10 renal and 29.5 µM in the test with U251 CNS.

Consider `COc1cc2ncnc(Oc3cccc(NC(=O)Nc4cc(C(C)(C)C(F)(F)F)on4)c3)c2cc1OC`, for which the GI50 in the test with 786-0 renal was 2.58 µM and 4.44 µM; in the test with HCT-116 colon it was 0.618 µM and 0.843 µM; in the test on HOP-92 NSCLC, 0.571 µM and 1.13 µM; in the test with NCI-H460 lung, 2.2 µM and 3.28 µM; in the test with OVCAR-3 ovarian, 2.66 µM and 3.62 µM; in the test with SK-OV-3 ovarian, 0.612 µM and 0.962 µM. Also, the GI50 with SR leukemia was 2.95 µM and 2.6 µM; with T-47D breast it was 1.96 µM and 1.67 µM; in the test with TK-10 renal, 0.948 µM and 0.82 µM; in the test with U251 CNS it was 2.98 µM and 4.09 µM. Also, the TGI in the test with 786-0 renal was 14.7 µM and > 10 µM; in the test on HCT-116 colon it was 11 µM and > 10 µM; in the test with HOP-92 NSCLC, 3.41 µM and 5.29 µM; in the test on NCI-H460 lung, 13.9 µM and > 10 µM; with OVCAR-3 ovarian it was 16.5 µM and > 10 µM; in the test on SK-OV-3 ovarian, 3.52 µM and 4.82 µM. The TGI with SR leukemia is 11.9 µM and > 10 µM; with T-47D breast, 11.7 µM and > 10 µM; in the test on TK-10 renal, 4.67 µM and 4.32 µM; in the test with U251 CNS, 14.1 µM and > 10 µM.

For the molecule `COc1ccc2c(c1)C(=O)c1c-2c(OCCN(C)C)nc2cc(OC)c(OC)cc12`, the GI50 was 13 µM in the test on 786-0 renal; 1.08 µM with HCT-116 colon; 3.22 µM in the test with HOP-92 NSCLC; 1.22 µM in the test on NCI-H460 lung; 2.23 µM with OVCAR-3 ovarian; 18.9 µM in the test on SK-OV-3 ovarian. The GI50 is 1.22 µM with SR leukemia, greater than 100 µM in the test on T-47D breast, 13.9 µM in the test with TK-10 renal and 3.08 µM with U251 CNS. In addition, the TGI with 786-0 renal was 27.2 µM; in the test with HCT-116 colon it was 19.6 µM; with HOP-92 NSCLC, 19.6 µM; with NCI-H460 lung, 15.3 µM; in the test on OVCAR-3 ovarian, 15.1 µM; in the test on SK-OV-3 ovarian, greater than 100 µM. Also, the TGI in the test on SR leukemia was 14.4 µM; with T-47D breast, greater than 100 µM; with TK-10 renal, 27.5 µM; with U251 CNS it was 19.1 µM.

Turning to `Cc1cc(S(N)(=O)=O)c(S/C(=N\NS(=O)(=O)c2ccccc2)c2ccc(Cl)cc2)cc1Cl`, the GI50 with 786-0 renal was greater than 100 µM; with HCT-116 colon, 77 µM; in the test with HOP-92 NSCLC it was 30.3 µM; with NCI-H460 lung, 65.4 µM; with OVCAR-3 ovarian, 47.6 µM; with SK-OV-3 ovarian, greater than 100 µM. Further, the GI50 in the test with SR leukemia is 49.2 µM; in the test on T-47D breast, greater than 100 µM; in the test with TK-10 renal it was greater than 100 µM; in the test with U251 CNS it was greater than 100 µM. For the same molecule, the TGI in the test on 786-0 renal was greater than 100 µM; in the test on HCT-116 colon, greater than 100 µM; with HOP-92 NSCLC, 84.9 µM; in the test on NCI-H460 lung, greater than 100 µM; in the test with OVCAR-3 ovarian it was greater than 100 µM; in the test with SK-OV-3 ovarian, greater than 100 µM. For the same molecule, the TGI in the test on SR leukemia, in the test with T-47D breast, in the test on TK-10 renal and in the test on U251 CNS was greater than 100 µM in each case.

For the origin of these results see PubChem BioAssay (NCI).
